{
  "source": "patent US12084473B2",
  "about": "“β-D-2′-deoxy-2′-α-fluoro-2′-β-C-substituted-2-modified-N6-substituted purine nucleotides for HCV treatment” (Atea Pharmaceuticals, Inc., priority 2015, dated 2024)",
  "key": {"iPS Cardiomyocytes": {"tested_on": "iPS Cardiomyocytes", "test": "iPS Cardiomyocyte Assay", "format": "cell-based, human", "settings": "3 days, XTT", "procedure": "iPS Cardiomyocytes (Cellular Dynamics) were seeded in microliter plates at 1.5×10^4 cells per well. After 48-hr incubation, cells were washed and maintenance medium containing serially diluted TA was added in triplicate. After incubating for an additional 3 days, cell viability was measured by staining with XTT and CC50 values were calculated."}, "human DNA polymerase α": {"biological_target": "T1, human DNA polymerase α (Homo sapiens, UniProt P09884)", "T1 construct": "purchased CHIMERx", "T1 sequence (P09884 1-1462)": "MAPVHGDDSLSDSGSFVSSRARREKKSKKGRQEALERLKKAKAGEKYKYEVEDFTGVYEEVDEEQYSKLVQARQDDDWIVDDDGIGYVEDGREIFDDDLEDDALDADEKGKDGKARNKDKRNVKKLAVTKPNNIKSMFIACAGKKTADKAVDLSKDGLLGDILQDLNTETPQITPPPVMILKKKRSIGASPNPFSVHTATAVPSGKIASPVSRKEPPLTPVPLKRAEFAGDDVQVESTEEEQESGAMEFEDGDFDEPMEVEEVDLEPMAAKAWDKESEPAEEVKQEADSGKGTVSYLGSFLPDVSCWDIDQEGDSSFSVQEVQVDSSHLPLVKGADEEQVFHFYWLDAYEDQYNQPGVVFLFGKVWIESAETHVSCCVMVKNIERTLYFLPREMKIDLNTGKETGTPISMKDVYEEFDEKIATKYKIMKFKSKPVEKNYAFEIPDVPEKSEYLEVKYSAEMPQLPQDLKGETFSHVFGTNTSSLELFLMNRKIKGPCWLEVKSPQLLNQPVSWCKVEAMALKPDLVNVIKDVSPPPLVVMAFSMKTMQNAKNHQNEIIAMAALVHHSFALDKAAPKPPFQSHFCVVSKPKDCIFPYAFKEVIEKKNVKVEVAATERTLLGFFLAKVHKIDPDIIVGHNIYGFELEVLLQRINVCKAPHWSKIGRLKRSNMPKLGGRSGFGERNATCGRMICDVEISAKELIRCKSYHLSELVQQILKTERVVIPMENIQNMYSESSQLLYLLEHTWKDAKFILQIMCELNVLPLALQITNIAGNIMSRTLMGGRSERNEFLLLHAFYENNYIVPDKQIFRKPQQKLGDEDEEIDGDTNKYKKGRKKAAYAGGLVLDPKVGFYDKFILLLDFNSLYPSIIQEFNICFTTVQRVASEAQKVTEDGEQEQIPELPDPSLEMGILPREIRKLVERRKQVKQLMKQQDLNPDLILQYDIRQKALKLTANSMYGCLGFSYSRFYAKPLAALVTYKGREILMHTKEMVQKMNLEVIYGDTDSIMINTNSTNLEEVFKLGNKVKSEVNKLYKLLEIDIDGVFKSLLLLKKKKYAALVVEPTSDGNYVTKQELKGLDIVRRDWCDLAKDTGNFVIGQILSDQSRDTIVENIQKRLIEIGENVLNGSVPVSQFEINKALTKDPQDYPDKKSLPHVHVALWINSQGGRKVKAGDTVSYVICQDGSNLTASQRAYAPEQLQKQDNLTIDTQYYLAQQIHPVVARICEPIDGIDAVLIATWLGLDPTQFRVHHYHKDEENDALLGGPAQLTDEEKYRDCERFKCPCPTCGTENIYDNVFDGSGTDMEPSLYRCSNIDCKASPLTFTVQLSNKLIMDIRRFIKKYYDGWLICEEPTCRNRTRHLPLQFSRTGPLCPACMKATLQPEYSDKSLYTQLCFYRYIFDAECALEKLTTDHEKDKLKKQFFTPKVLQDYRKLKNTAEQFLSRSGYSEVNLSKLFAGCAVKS", "test": "Human DNA Polymerase Assays", "format": "biochemical", "settings": "at concentrations up to 100 μM", "procedure": "(§1) Inhibition of human DNA polymerases α, β and γ (CHIMERx) was determined in triplicate in reaction mixtures of serially diluted TA, 0.05 mM dCTP, dTTP, and dATP, 10 μCi [^32P]-α-dGTP (800 Ci/mmol), 20 μg activated calf thymus DNA and additional reagents specific for each polymerase."}, "human DNA polymerase β": {"biological_target": "T2, human DNA polymerase β (Homo sapiens, UniProt P06746)", "T2 construct": "purchased CHIMERx", "test": "Human DNA Polymerase Assays", "format": "biochemical", "settings": "at concentrations up to 100 μM", "procedure": "as §1"}, "HCV wild type replicon": {"tested_on": "HCV wild type replicon", "test": "microbe, parasite or virus in culture", "format": "cell-based", "settings": "for IC50: Hepatitis C virus, read-out: IC50 Value"}, "[1]": {"tested_on": "human bone marrow progenitor cells", "test": "Human Bone Marrow Progenitor Cell Assay", "format": "cell-based", "settings": "14-day incubations, colony counts", "procedure": "Fresh human bone marrow progenitor cells (Invitrogen) suspended in either BFU-E or GM-CSF-specific culture medium were added, at 10^5 cells/well, to triplicate serial dilutions of TA in 6-well plates. After 14-day incubations, colony counts were used to determine CC50 values. BFU-E colonies were confirmed using the benzidene technique."}, "other RNA or DNA viruses": {"tested_on": "other RNA or DNA viruses", "test": "Activity against other RNA or DNA viruses", "format": "cell-based", "settings": "at concentrations up to 100 μM"}, "[2]": {"settings": "NS5B Mutation None, transient assay, 96-hr"}},
  "note": "Like-named read-outs stand apart in the source and are kept apart here.",
  "data": [
    {"smiles": "CC(C)OC(=O)[C@H](C)N[P@](=O)(OCC1O[C@@H](n2cnc3c(N(C)C)nc(N)nc32)[C@](C)(F)[C@@H]1O)Oc1ccccc1", "note": "(stereo partly drawn) [Compound 25, isopropyl ((((S)-(2R,3R,4R,5R)-5-(2-amino-6-(dimethylamino)-9H-purin-9-yl)-4-fluoro-3-hydroxy-4-methyltetrahydrofuran-2-yl)methoxy)-phenoxy-phosphoryl)-L-alaninate]", "values": [
      {"measurement": "cytotoxicity against iPS cardiomyocytes in vitro", "setting": "iPS Cardiomyocytes", "value": "no cytotoxicity"},
      {"measurement": "inhibition of human DNA polymerase α", "setting": "human DNA polymerase α", "value": "No inhibition"},
      {"measurement": "inhibition of human DNA polymerase β", "setting": "human DNA polymerase β", "value": "No inhibition"},
      {"measurement": "IC95 Value", "setting": "HCV wild type replicon", "value": 2.7, "unit": "nM"},
      {"measurement": "IC50", "setting": "HCV wild type replicon; 96 h", "value": "< 1", "unit": "nM"},
      {"measurement": "Fold Change in IC50 from Sofosbuvir", "setting": "HCV wild type replicon; NS5B Mutation None", "value": ">36.4"},
      {"measurement": "Fold Change in IC95 from Sofosbuvir", "setting": "HCV wild type replicon; NS5B Mutation None", "value": 80.7},
      {"measurement": "cytotoxicity against bone marrow stem cells in vitro", "setting": "[1]", "value": "no cytotoxicity"},
      {"measurement": "activity against other RNA or DNA viruses", "setting": "other RNA or DNA viruses", "value": "no activity"}
    ]},
    {"smiles": "CNc1nc(N)nc2c1ncn2[C@@H]1OC(CO[P@@](=O)(N[C@@H](C)C(=O)OC(C)C)Oc2ccccc2)[C@@H](O)[C@@]1(C)F", "note": "(stereo partly drawn) [Compound 5-2]", "values": [
      {"measurement": "cytotoxicity against iPS cardiomyocytes in vitro", "setting": "iPS Cardiomyocytes", "value": "no cytotoxicity"},
      {"measurement": "IC50", "setting": "HCV wild type replicon; [2]", "value": 1.4, "unit": "nM"},
      {"measurement": "Fold Change in IC50 from Sofosbuvir", "setting": "HCV wild type replicon; NS5B Mutation None", "value": 26},
      {"measurement": "Fold Change in IC95 from Sofosbuvir", "setting": "HCV wild type replicon; NS5B Mutation None", "value": 22.2},
      {"measurement": "IC95 Value", "setting": "HCV wild type replicon; [2]", "value": 9.98, "unit": "nM"},
      {"measurement": "cytotoxicity against bone marrow stem cells in vitro", "setting": "[1]", "value": "no cytotoxicity"}
    ]},
    {"smiles": "CC(C)OC(=O)[C@H](C)N[P@](=O)(OCC1O[C@@H](n2cnc3c(N(C)C4CC4)nc(N)nc32)[C@](C)(F)[C@@H]1O)Oc1ccccc1", "note": "(stereo partly drawn) [Compound 27, isopropyl ((((S)-(2R,3R,4R,5R)-5-(2-amino-6-(methylcyclopropanamino)-9H-purin-9-yl)-4-fluoro-3-hydroxy-4-methyltetrahydrofuran-2-yl)methoxy)-phenoxy-phosphoryl)-L-alaninate]", "values": [
      {"measurement": "cytotoxicity against iPS cardiomyocytes in vitro", "setting": "iPS Cardiomyocytes", "value": "no cytotoxicity"},
      {"measurement": "inhibition of human DNA polymerase α", "setting": "human DNA polymerase α", "value": "No inhibition"},
      {"measurement": "inhibition of human DNA polymerase β", "setting": "human DNA polymerase β", "value": "No inhibition"},
      {"measurement": "IC95 Value", "setting": "HCV wild type replicon", "value": 4.1, "unit": "nM"},
      {"measurement": "IC50", "setting": "HCV wild type replicon; 96 h", "value": "< 1", "unit": "nM"},
      {"measurement": "Fold Change in IC50 from Sofosbuvir", "setting": "HCV wild type replicon; NS5B Mutation None", "value": ">36.4"},
      {"measurement": "Fold Change in IC95 from Sofosbuvir", "setting": "HCV wild type replicon; NS5B Mutation None", "value": 53.2},
      {"measurement": "cytotoxicity against bone marrow stem cells in vitro", "setting": "[1]", "value": "no cytotoxicity"},
      {"measurement": "activity against other RNA or DNA viruses", "setting": "other RNA or DNA viruses", "value": "no activity"}
    ]}
  ]
}
